Drawing on patent US20230279001A1, “IMIDAZO[1,2-A]PYRIDINE COMPOUNDS FOR THE TREATMENT OF AUTOIMMUNE DISEASE” (Hoffmann-La Roche Inc., priority 2020, published 2023), this text covers IC50 for 1 compound.

Assay [1] deals with T1, TLR9 (Homo sapiens (Human), UniProt Q9NR96). As to the kind of experiment: HEK293-Blue-hTLR-9 cells assay. In kind it is cell-based. The settings on record: HEK293-Blue-hTLR9 cells, ODN2006 stimulation, 20 hrs, SEAP reporter; read-out: HEK/hTLR9 IC50. The source says: A stable HEK293-Blue-hTLR-9 cell line was purchased from InvivoGen (Cat. #: hkb-htlr9, San Diego, Calif., USA). These cells were originally designed for studying the stimulation of human TLR9 by monitoring the activation of NF-κB. A SEAP (secreted embryonic alkaline phosphatase) reporter gene was placed under the control of the IFN-β minimal promoter fused to five NF-κB and AP-1-binding sites. The SEAP was induced by activating NF-κB and AP-1 via stimulating HEK-Blue hTLR9 cells with TLR9 ligands. Therefore the reporter expression was declined by TLR9 antagonist under the stimulation of a ligand, such as ODN2006 (Cat. #: tlr1-2006-1, Invivogen, San Diego, Calif., USA), for incubation of 20 hrs. The cell culture supernatant SEAP reporter activity was determined using QUANTI-Blue™ kit (Cat. #: rep-qb1, Invivogen, San Diego, Calif., USA) at a wavelength of 640 nm, a detection medium that turns purple or blue in the presence of alkaline phosphatase.
T1 sequence (Q9NR96 26-1032): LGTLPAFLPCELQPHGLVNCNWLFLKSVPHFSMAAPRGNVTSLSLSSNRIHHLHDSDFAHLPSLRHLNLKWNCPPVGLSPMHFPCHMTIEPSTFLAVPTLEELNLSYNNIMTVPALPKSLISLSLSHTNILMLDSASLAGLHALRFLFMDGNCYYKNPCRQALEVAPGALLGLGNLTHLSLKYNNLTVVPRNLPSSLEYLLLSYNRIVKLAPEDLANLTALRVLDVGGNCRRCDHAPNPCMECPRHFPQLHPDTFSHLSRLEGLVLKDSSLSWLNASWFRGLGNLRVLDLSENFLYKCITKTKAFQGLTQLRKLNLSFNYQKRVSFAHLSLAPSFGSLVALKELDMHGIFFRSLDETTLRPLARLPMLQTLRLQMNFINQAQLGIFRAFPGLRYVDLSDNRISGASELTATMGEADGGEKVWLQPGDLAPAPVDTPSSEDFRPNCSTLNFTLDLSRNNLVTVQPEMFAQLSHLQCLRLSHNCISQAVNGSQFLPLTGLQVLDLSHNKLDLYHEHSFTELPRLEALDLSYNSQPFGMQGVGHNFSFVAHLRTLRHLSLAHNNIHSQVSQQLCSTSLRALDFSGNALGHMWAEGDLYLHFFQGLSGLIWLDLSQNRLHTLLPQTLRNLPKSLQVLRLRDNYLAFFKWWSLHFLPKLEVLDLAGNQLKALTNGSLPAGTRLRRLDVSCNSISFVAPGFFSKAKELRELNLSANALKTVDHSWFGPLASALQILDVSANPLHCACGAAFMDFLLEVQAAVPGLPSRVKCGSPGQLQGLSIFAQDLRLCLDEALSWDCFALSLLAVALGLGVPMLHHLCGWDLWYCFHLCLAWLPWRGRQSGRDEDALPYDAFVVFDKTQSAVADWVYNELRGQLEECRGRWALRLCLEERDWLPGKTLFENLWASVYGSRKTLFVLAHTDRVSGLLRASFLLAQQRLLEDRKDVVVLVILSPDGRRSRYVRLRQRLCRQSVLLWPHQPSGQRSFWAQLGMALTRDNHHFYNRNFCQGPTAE
HEK293-Blue-hTLR9 cells were incubated at a density of 250,000˜450,000 cells/mL in a volume of 170 μL in a 96-well plate in Dulbecco's Modified Eagle's medium (DMEM) containing 4.5 g/L glucose, 50 U/mL penicillin, […], 2 mM L-glutamine, 10% (v/v) heat-inactivated fetal bovine serum with addition of 20 μL test compound in a serial dilution in the presence of final DMSO at 1% and 10 μL, of 20 uM ODN2006 in above DMEM, perform incubation under 37° C. in a CO2 incubator for 20 hrs. Then 20 μL of the supernatant from each well was incubated with 180 μL, Quanti-blue substrate solution at 37° C. for 2 h and the absorbance was read at 620655 nm using a spectrophotometer. The signaling pathway that TLR9 activation leads to downstream NF-κB activation has been widely accepted, and therefore similar reporter assay was modified for evaluating TLR9 antagonist.

In assay [2] the target is T1, TLR9. Briefly: Human PBMC cell-based assay, TLR9. The following applies: CpG ODN 2216 at 1 μM, overnight, cytokine readout, read-out: hPBMC/TLR9 IC50. The source says:
Unlike the HEK reporter cell lines, human peripheral blood mononuclear cell (PBMC) represents primary human immune cells in blood mainly consisting of lymphocytes, monocytes, and dendritic cells. These cells express TLR7, TLR8, or TLR9, and therefore are natural responders to respective ligand stimulation. Upon activation of these TLRs, PBMCs secrete similar cytokines and chemokines in vitro and in vivo, and therefore the in vitro potency of a TLR7/8/9 antagonist in human PBMC is readily translatable to its pharmacodynamics response in vivo.
Human peripheral blood mononuclear cells (PBMC) were isolated from freshly-drawn lithium-heparinized (Lithium Heparin Plus blood Collection tube, BD Vacutainer®) healthy donor whole blood by density gradient (Ficoll-Paque™ PLUS, GE Healthcare life Sciences). Briefly, […] was diluted with 25 mL PBS (without Ca^2+, Mg^2+) in a 50 mL conical tube with porous barrier (Leucosep tube, Greiner bio-one), where 15.5 mL Ficoll-Paque was under laid after spinning. Tubes were centrifuged for 20 minutes at 800×g (1946 rpm) with the brake in the off position, and PBMC were collected from the buffy coat. Cells were then washed twice in PBS, and red blood cells were lysed by suspension in 2 mL (Red Blood Cell Lysis Buffer, Alfa Aesar) for 5-10 minutes at room temperature. After a final wash in PBS, PBMC were resuspended at a final concentration of 2×10^6 cells/mL in RPMI-1640 media with GlutaMAX™ (Gibco) supplemented with 10% Fetal Bovine Serum (Sigma) and plated at 150 μL/well (3×10^5 cells/well) in tissue culture treated round bottom 96-well plates (Corning Incorporated). Antagonist compounds (compounds of this invention) solubilized and serial diluted in 100% DMSO were added in duplicate to cells to yield a final concentration of 1% DMSO (v/v). PBMC were incubated with antagonist compounds for 30 minutes at 37° C., 5% CO2 before adding various TLR agonist reagents in 48 μL complete media per well as follows (final concentrations indicated): CpG ODN 2216 (InvivoGen) at 1 μM for TLR9, ORN 06/LyoVec (InvivoGen) at 1 μg/mL for TLR8 and R848 (InvivoGen) at 1 μg/mL for TLR7 and TLR8. PBMC were incubated overnight at 37° C. with 5% CO2. Cell culture supernatants were collected, and levels of various human cytokines were assessed by Luminex assay (ProcartaPlex™ Multiplex Immunoassay, Invitrogen) or ELISA procedure according to the manufacturer's recommended protocol (eBioscience, ThermoFisher Scientific). Viability of the cells was also checked with Cell Viability Assay (CellTiter Glo®Luminescent Cell Viability Assay, Promega).

The target in the next assay is human TLR8 (Homo sapiens (Human), UniProt Q9NR97). As to the kind of experiment: HEK293-Blue-hTLR-8 cells assay. In kind it is cell-based. The settings on record: HEK293-Blue-hTLR8 cells, R848 stimulation, 20 hrs, SEAP reporter; read-out: HEK/hTLR8 IC50. The source says:
A stable HEK293-Blue-hTLR-8 cell line was purchased from InvivoGen (Cat. #: hkb-htlr8, San Diego, Calif., USA). These cells were originally designed for studying the stimulation of human TLR8 by monitoring the activation of NF-κB. A SEAP (secreted embryonic alkaline phosphatase) reporter gene was placed under the control of the IFN-β minimal promoter fused to five NF-κB and AP-1-binding sites. The SEAP was induced by activating NF-κB and AP-1 via stimulating HEK-Blue hTLR8 cells with TLR8 ligands. Therefore the reporter expression was declined by TLR8 antagonist under the stimulation of a ligand, such as R848, for incubation of 20 hrs. The cell culture supernatant SEAP reporter activity was determined using QUANTI-Blue™ kit (Cat. #: rep-gb1, Invivogen, San Diego, Ca, USA) at a wavelength of 640 nm, a detection medium that turns purple or blue in the presence of alkaline phosphatase.
HEK293-Blue-hTLR8 cells were incubated at a density of 250,000˜450,000 cells/mL in a volume of 170 μL in a 96-well plate in Dulbecco's Modified Eagle's medium (DMEM) containing 4.5 g/L glucose, 50 U/mL penicillin, […], […], 2 mM L-glutamine, 10% (v/v) heat-inactivated fetal bovine serum with addition of 20 μL test compound in a serial dilution in the presence of final DMSO at 1% and 10 μL of 60 uM R848 in above DMEM, perform incubation under 37° C. in a CO2 incubator for 20 hrs. Then 20 μL of the supernatant from each well was incubated with 180 μL Quanti-blue substrate solution at 37° C. for 2 hrs and the absorbance was read at 620655 nm using a spectrophotometer. The signaling pathway that TLR8 activation leads to downstream NF-κB activation has been widely accepted, and therefore similar reporter assay was modified for evaluating TLR8 antagonist.

Chain of human TLR8 (Q9NR97 27-1041): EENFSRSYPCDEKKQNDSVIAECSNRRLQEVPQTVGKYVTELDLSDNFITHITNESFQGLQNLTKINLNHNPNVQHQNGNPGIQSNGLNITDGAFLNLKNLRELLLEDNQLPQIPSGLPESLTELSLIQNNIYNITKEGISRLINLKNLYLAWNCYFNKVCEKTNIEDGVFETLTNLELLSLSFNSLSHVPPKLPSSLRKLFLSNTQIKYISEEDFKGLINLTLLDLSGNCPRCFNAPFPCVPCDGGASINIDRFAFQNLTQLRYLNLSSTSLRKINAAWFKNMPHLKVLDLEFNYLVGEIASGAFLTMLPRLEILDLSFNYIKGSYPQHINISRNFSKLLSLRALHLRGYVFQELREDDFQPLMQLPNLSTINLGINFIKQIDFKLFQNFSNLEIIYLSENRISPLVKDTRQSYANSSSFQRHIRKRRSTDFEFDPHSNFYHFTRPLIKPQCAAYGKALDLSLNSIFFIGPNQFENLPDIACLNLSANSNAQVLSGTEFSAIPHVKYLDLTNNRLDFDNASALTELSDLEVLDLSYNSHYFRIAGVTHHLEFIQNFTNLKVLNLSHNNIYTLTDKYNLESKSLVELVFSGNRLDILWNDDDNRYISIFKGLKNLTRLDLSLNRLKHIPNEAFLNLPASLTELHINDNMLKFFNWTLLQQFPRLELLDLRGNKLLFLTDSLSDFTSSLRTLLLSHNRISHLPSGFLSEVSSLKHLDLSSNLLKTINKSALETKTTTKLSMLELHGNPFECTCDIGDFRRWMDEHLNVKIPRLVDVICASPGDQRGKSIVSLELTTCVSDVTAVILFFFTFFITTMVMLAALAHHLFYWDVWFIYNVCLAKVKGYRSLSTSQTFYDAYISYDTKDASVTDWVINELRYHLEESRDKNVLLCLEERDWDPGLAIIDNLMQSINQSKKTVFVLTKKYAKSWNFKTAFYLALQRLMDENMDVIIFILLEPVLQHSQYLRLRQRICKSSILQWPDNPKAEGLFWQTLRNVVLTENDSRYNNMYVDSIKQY

Take `CCc1nc(N2CCC(N3C[C@@H](N)[C@H](OC)C3)CC2)ccc1-c1cc(C)c2nc(C)cn2c1` [Example 17, (3R,4R)-1-[1-[5-(2,8-dimethylimidazo[1,2-a]pyridin-6-yl)-6-ethyl-2-pyridyl]-4-piperidyl]-4-methoxy-pyrrolidin-3-amine]: the IC50 at TLR9 [1] is 224 nM; at TLR9 [2] it was 100 nM; at human TLR8, 1 nM.
